Source: the supplement of paper PMC11579375

Key:
Test in all cases: area under the viability dose-response curve (AUC) (AUC (arbitrary units, max 500 = no viability loss)); higher = less sensitive (higher viability)
Settings in all cases: exposure time: 120 h; concentration range: 0.1 nM - 10 µM, 6 doses
[1] = test system: 3E (embryonal-type hepatoblastoma organoid)
Description: (§1)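 Patient-derived hepatoblastoma tumor organoids (about 50 organoids per well, 384-well plates, medium with 5% BME) were treated with the PMC pediatric cancer drug library. Each drug was tested in duplicate at 6 concentrations (0.1 nM to 10 µM, 10-fold steps).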

[2] = test system: 135F2 (fetal-II hepatoblastoma organoid with high liver markers)
Description: as §1

[3] = test system: 96F1 (fetal-I hepatoblastoma organoid with intermediate liver markers)
Description: as §1

[4] = test system: 17F1 (fetal-I hepatoblastoma organoid with intermediate liver markers)
Description: as §1

[5] = test system: 22E (embryonal-type hepatoblastoma organoid)
Description: as §1

[6] = test system: 27F1 (fetal-I hepatoblastoma organoid with intermediate liver markers)
Description: as §1

[7] = test system: 17E (embryonal-type hepatoblastoma organoid)
Description: as §1

[8] = test system: 13E (embryonal-type hepatoblastoma organoid)
Description: as §1

[9] = test system: 10F2 (fetal-II hepatoblastoma organoid with high liver markers)
Description: as §1

[10] = test system: 8F1 (fetal-I hepatoblastoma organoid with intermediate liver markers)
Description: as §1

[11] = test system: 13F2 (fetal-II hepatoblastoma organoid with high liver markers)
Description: as §1

| SMILES | area under the viability dose-response curve [1] | area under the viability dose-response curve [2] | area under the viability dose-response curve [3] | area under the viability dose-response curve [4] | area under the viability dose-response curve [5] | area under the viability dose-response curve [6] | area under the viability dose-response curve [7] | area under the viability dose-response curve [8] | area under the viability dose-response curve [9] | area under the viability dose-response curve [10] | area under the viability dose-response curve [11] |
| --- | --- | --- | --- | --- | --- | --- | --- | --- | --- | --- | --- |
| CCOC(=O)CCNc1cc(N2CCc3ccccc3CC2)nc(-c2ccccn2)n1 [GSK J4] | 445 | 468 | 492 | 483 | 476 | > 500 | 452 | 449 | 493 | 494 | 438 |
| C[C@@H]1CN(C(=O)c2ccc(NC(=O)c3cc(O[C@H](C)c4c(Cl)ccc(F)c4Cl)c(N)nn3)cc2)C[C@H](C)N1 [Ensartinib] | 403 | 449 | 456 | 483 | 393 | 468 | 411 | 422 | 449 | 444 | 410 |
| CO[C@H]1/C=C/C[C@H](C)[C@@H](C)S(=O)(=O)NC(=O)c2ccc3c(c2)N(C[C@@H]2CC[C@H]21)C[C@@]1(CCCc2cc(Cl)ccc21)CO3 [AMG-176] | 369 | 431 | 488 | 481 | 454 | 450 | 434 | 421 | 274 | 475 | 344 |
| CC(C)C[C@H](NC(=O)CNC(=O)c1cc(Cl)ccc1Cl)B(O)O [Ixazomib] | 256 | 261 | 294 | 278 | 321 | 282 | 247 | 282 | 246 | 287 | 264 |
| CC[C@H](Nc1ncnc2[nH]cnc12)c1nc2cccc(F)c2c(=O)n1-c1ccccc1 [Idelalisib] | 491 | > 500 | > 500 | 495 | 492 | 492 | 488 | 497 | 492 | 484 | 496 |
| CNCc1ccc(-c2cc(-c3nc(-c4ccc(S(=O)(=O)C(C)C)cc4)cnc3N)on2)cc1 [Berzosertib] | 391 | 391 | 459 | > 500 | 473 | 498 | 444 | 461 | 411 | 499 | 401 |
| NS(=O)(=O)OC[C@@H]1C[C@@H](n2ccc3c(N[C@H]4CCc5ccccc54)ncnc32)C[C@@H]1O [Pevonedistat] | 448 | 342 | 381 | 400 | 470 | 333 | 383 | 451 | 425 | 445 | 329 |
| CCN(c1cc(-c2ccc(CN3CCOCC3)cc2)cc(C(=O)NCc2c(C)cc(C)[nH]c2=O)c1C)C1CCOCC1 [Tazemetostat] | 461 | 473 | 473 | 482 | 481 | 475 | 415 | 479 | 448 | > 500 | 360 |
| COCC[n+]1c2c(n(Cc3cnccn3)c1C)C(=O)c1ccccc1C2=O [Sepantronium bromide] | 241 | 427 | 286 | 312 | 316 | 408 | 331 | 337 | 348 | 429 | 395 |
| COc1cc(CCc2cc(NC(=O)c3ccc(N4CC(C)NC(C)C4)cc3)n[nH]2)cc(OC)c1 (configuration not stated) [AZD4547] | 308 | 471 | 475 | 480 | 370 | > 500 | 338 | 375 | 476 | > 500 | 376 |
| CN(C)/N=N/c1[nH]cnc1C(N)=O [Dacarbazine] | > 500 | 496 | 491 | 486 | > 500 | 494 | > 500 | > 500 | > 500 | > 500 | 487 |
| CNC(=O)c1cccc(-c2ccc3c(N4CCOC[C@@H]4C)nc(N4CCOC[C@@H]4C)nc3n2)c1 [Vistusertib] | 376 | 407 | 460 | 498 | 426 | 407 | 392 | 409 | 324 | 470 | 342 |
| Cn1ncnc1[C@H]1c2n[nH]c(=O)c3cc(F)cc(c23)N[C@@H]1c1ccc(F)cc1 [Talazoparib] | 341 | 392 | 439 | 486 | 444 | 403 | 383 | 399 | 367 | 438 | 328 |
| N[C@@H](Cc1ccc(N(CCCl)CCCl)cc1)C(=O)O [Melphalan] | > 500 | 469 | 467 | > 500 | > 500 | > 500 | 434 | 417 | 414 | 483 | 436 |
| Cn1nccc1Nc1nccc(-c2ccn([C@H](CO)c3ccc(Cl)c(F)c3)c(=O)c2)n1 [Ravoxertinib] | 494 | 380 | 483 | > 500 | 468 | > 500 | 475 | 470 | 331 | > 500 | 354 |
| CNC(=O)c1ccc(-c2cnc3ncc(Cc4ccc5ncccc5c4)n3n2)cc1F [Capmatinib] | > 500 | 491 | 478 | 477 | 462 | 465 | 481 | 498 | > 500 | 460 | 403 |
| CC1(C)CCC(c2ccc(Cl)cc2)=C(CN2CCN(c3ccc(C(=O)NS(=O)(=O)c4ccc(N[C@H](CCN5CCOCC5)CSc5ccccc5)c(S(=O)(=O)C(F)(F)F)c4)cc3)CC2)C1 [Navitoclax] | 326 | 425 | 423 | 433 | 423 | 421 | 423 | 414 | 335 | 321 | 409 |
